Laboratory results as given in patent publication US9408845B2, “Formulations containing pyridazine compounds” (Northwestern University, priority 2006, dated 2016).
Read-outs that look alike come from different tables or passages of the source.

Assays:
[1] = test system: nitric oxide (NO) production in BV-2 microglial cells; assay: LPS-stimulated accumulation of nitrite (NO metabolite) in BV-2 cells, Griess assay; format: cell-based, mouse; conditions: for IC50: read-out: NO, concentration required for 50% inhibition, LPS-stimulated BV-2 cells, 16 hrs; for inhibition of LPS-stimulated accumulation of the NO metabolite, nitrite / selectivity (inhibits IL-1β but not production of NO, iNOS, COX-2): BV-2 cells; for inhibition of LPS-stimulated accumulation of the NO metabolite, nitrite: concentrations up to 33 μM; for selectivity (inhibits IL-1β but not production of NO, iNOS, COX-2): same concentration range
Experimental: (§2) Glia cell-based assays of the concentration-dependent activity of the compounds were done as previously described (Hu T, Ralay Ranaivo et al., Current Alzheimer's Research 2005, 2:197-205; Mirzoeva. S, et al., J Med Chem 2002, 45:563-566; Ralay Ranaivo H, et al., 3 Neurosci 2006, 26:662-670). BV-2 mouse microglial cells were cultured for one day in multiwell plates and then treated in serum-free media for 16 his with either control buffer or the standard glial activating stimulus lipopolysaccharide (LPS, front Salmonella typhimurium; 100 ng/ml) in the presence of diluent or different concentrations of compounds. The accumulation of nitrite, the stable metabolite of nitric oxide (NO), was measured in V-2 conditioned media by the Griess assay as previously described (Hu W, Ralay Ranaivo et al., Current Alzheimer's Research 2005, 2:197-205; Mirzoeva S, et al, J Med Chem 2002, 45:563-566; Mirzoeva 5, et al., Brain Res 1999, 844:126434). Levels of IL-1β, TNFα, MCP-1 and IL-1β in cell lysates were measured by the Mesoscale Discovery system as per the manufacturer's instructions. Cell lysates were analyzed by Western blots as described (Mirzoeva 5, et al., J. Med Chem 2002, 45:563-566; Ralay Ranaivo H, et al J Neurosci 2006, 26:662-670) to determine the levels of inducible nitric oxide synthase (iNOS) and cyclooxygenase-2 (COX-2).

[2] = test system: COX-2 production in activated BV-2 cells; assay: LPS-induced COX-2 levels in activated BV-2 cells, Western blot; format: cell-based, mouse
Experimental: as §2

[3] = test system: iNOS production in activated BV-2 cells; assay: LPS-induced iNOS levels in activated BV-2 cells, Western blot; format: cell-based, mouse
Experimental: as §2

[4] = test system: LPS-induced IL-1β production in BV-2 microglia cells; assay: LPS-induced IL-1β production in BV-2 microglial cells; conditions: for inhibition of LPS-induced increases of IL-1β: BV2 microglial cell line, concentration dependence; for IC50: read-out: IL-1β, concentration required for 50% inhibition
Experimental: as §2

[5] = test system: human Aβ infusion mouse model; assay: Human Aβ infusion mouse model, hippocampal neuroinflammation and synaptic biochemical endpoints; format: in vivo; conditions: hippocampus, Aβ-infused mice, oral compound
Experimental: The study design and treatment paradigm for intracerebroventricular (ICV) infusion of human oligomerie Aβ1-42 into the mouse will be as described previously (Craft et al., Neurobiol Aging 25:1283-1292, 2004b), except that compound administration will be by mouth. Female C57Bl/6 mice (Harlan) weighing 20-25 g (3-4 months old) will be housed in a pathogen free facility under an approximate 12 h/12 h dark and light cycle and they will have access ad libitum to food and water.
(§1) Once per day treatment will begin at day 21 after start of Aβ ICV infusion and continue for 14 days. Beginning at day 50 after start of Aβ ICV infusion, the Y maze test of spontaneous alternation will be used to evaluate hippocampus dependent spatial learning as described previously (Craf et al., J Mol. Neurosci. 24:115-122, 2004a). Briefly, each mouse will be placed in the “start” arm and then released to choose one of the two other arms. The mouse will be blocked from exiting the chosen arm for 30 s then they will be placed back in the start arm and released again to choose one of the two other arms. If the second choice is different from the first one, the mouse will be scored as alternating. Mice will be tested for 10 days with one trial per day, and a mean percent alternation will be calculated for each mouse. […] The brain will be removed and longitudinally bisected as described previously (Craft et al., Neurobiolo Aging 25:12834292, 2004b). […] The hippocampus will be dissected from the left half of the brain and snap-frozen for subsequent biochemical evaluation.
S100B levels in hippocampal supernatants will be measured by a empium-based ELISA essentially as previously described (Van Eldik and Griffin, Biochem Biophys Acta 1223:398-403, 1994). Synaptophysin levels in hippocampal supernatants will be quantified by ELISA following the procedure described previously (Craft at al, 20041, supra). PSD-95 levels will be determined by Western blots using anti-PSD-95 antibodies (1:100,000 dilution; Upstate Biotechnology) as described (Craft et al., 2004b).
It was previously shown that Aβ-induced neuroinflammation is an early event associated with the onset and progression of pathophysiology, and can be suppressed by an inhibitor of glial activation. Female C57Bl/6 mice (Harlan) weighing […] (3-4 months old) were housed in a pathogen free facility under an approximate 12 h/12 h dark and light cycle and had access ad libitum to food and water. All animal procedures were approved by the Northwestern Animal Care and Use Committee.

[6] = test system: human Aβ infusion mouse model; assay: Human Aβ infusion mouse model, Y maze behavioral assay; format: in vivo; conditions: 1.25, 2.5, 5, and 10 mg/kg
Text: as §1

[7] = LPS-stimulated BV-2 cells, 16 hrs

Compound | suppression of LPS-induced production of COX-2 [2] | inhibition of LPS-stimulated accumulation of the NO metabolite, nitrite [1] | suppression of LPS-induced production of iNOS [3] | inhibition of LPS-induced increases of IL-1β [4] | selectivity (inhibits IL-1β but not production of NO, iNOS, COX-2) [1] | other results
4-Methyl-6-phenyl-3-(4-pyridin-2-yl)piperazin-1-yl)pyridazine [Compound 8] |  |  |  |  |  | IC50 [1]: > 25 µM
4-Methyl-6-phenyl-3-(4-pyridin-4-yl)piperazin-1-yl)pyridazine [Compound 9] |  |  |  |  |  | IC50 [1]: > 25 µM
4-methyl-6-phenyl-3-(4-pyrimidin-2-ylpiperazin-1-yl)pyridazine [MW01-2-151SRM] | does not suppress | not inhibited | does not suppress | Concentration dependent inhibition |  | 
4-pyridyl-6-phenyl-3-(4-pyrimidin-2-ylpiperazin-1-yl)pyridazine [MW01-6-189WH] | does not suppress | not inhibited | does not suppress | Concentration dependent inhibition |  | 
c1ccc(Cc2cc(-c3ccccc3)nnc2N2CCN(c3ncccn3)CC2)cc1 [Compound 2] |  |  |  |  |  | IC50 [1]: > 25 µM; IC50 [4, 7]: 5.3 ± 0.6 µM
CC(C)Cc1cc(-c2ccccc2)nnc1N1CCN(c2ncccn2)CC1 [Compound 4] |  |  |  |  |  | IC50 [1]: 22 ± 3 µM; IC50 [4, 7]: 6.1 ± 2.5 µM
Cc1cc(-c2ccccc2)nnc1N1CCN(c2cnccn2)CC1 [Compound 7] |  |  |  |  |  | IC50 [4, 7]: 46.1 ± 23.3 µM
Cc1cc(-c2ccccc2)nnc1N1CCN(C2CCCCC2)CC1 [Compound 10, 3-(4-cyclohexylpiperazin-1-yl)-4-methyl-6-phenylpyridazine] |  |  |  |  |  | IC50 ([4]; Mus musculus, BV-2, 16 h): 31.4 ± 4.9 µM
Cc1cc(-c2ccccc2)nnc1N1CCN(C)CC1 [Compound 11, 4-Methyl-3-(4-methylpiperazin-1-yl)-6-phenylpyridazine] |  |  |  |  |  | IC50 ([4]; Mus musculus, BV-2, 16 h): 48.9 ± 23.2 µM
Clc1cc(-c2ccccc2)nnc1N1CCN(c2ncccn2)CC1 [MW01-6-127WH, 4-chloro-6-phenyl-3-(4-pyrimidin-2-ylpiperazin-1-yl)pyridazine] |  |  |  |  |  | IC50 ([1]; Mus musculus): 19 ± 8 µM; IC50 ([4]; Mus musculus, BV-2, 16 h): 9.5 ± 4 µM
Cc1cc(-c2ccccc2)c(N2CCN(c3ncccn3)CC2)nn1 [MW01-7-057WH, 6-methyl-4-phenyl-3-(4-pyrimidin-2-ylpiperazin-1-yl)pyridazine] | does not suppress | not inhibited | does not suppress | Concentration dependent inhibition | selective | loss of PSD-95 [5]: did not block; loss of synaptophysin [5]: blocked; up-regulation of IL-1β [5]: did not block; up-regulation of S100B [5]: blocked; loss of PSD-95 ([5]; listed as MW01-2-057WH): no significant effect; prevention of Y-maze behavioral deficit [6]: significantly effective
c1ccc(-c2cc(-c3ccncc3)c(NCC3CC3)nn2)cc1 [MW01-7-084WH, N-(cyclopropylmethyl)-6-phenyl-4-(pyridin-4-yl)pyridazin-3-amine] | does not suppress | not inhibited | does not suppress | Concentration dependent inhibition | selective | loss of PSD-95 [5]: prevented; loss of synaptophysin [5]: not as effective as MW01-2-151SRM; up-regulation of IL-1β [5]: blocked; up-regulation of S100B [5]: blocked; prevention of Y-maze behavioral deficit [6]: trend toward preventing
CN1CCN(c2nnc(-c3ccccc3)cc2-c2ccncc2)CC1 [MW01-7-085WH, 3-(4-methylpiperazin-1-yl)-6-phenyl-4-(pyridin-4-yl)pyridazine] | does not suppress | not inhibited | does not suppress | Concentration dependent inhibition | selective | loss of PSD-95 [5]: prevented; loss of synaptophysin [5]: not as effective as MW01-2-151SRM; up-regulation of IL-1β [5]: blocked; up-regulation of S100B [5]: blocked; prevention of Y-maze behavioral deficit [6]: trend toward preventing
c1ccc(-c2cc(N3CCCCC3)c(N3CCN(c4ncccn4)CC3)nn2)cc1 [MW01-7-107WH, 2-(4-(6-phenyl-4-(piperidin-1-yl)pyridazin-3-yl)piperazin-1-yl)pyrimidine] | also inhibited | also inhibited | also inhibited | Concentration dependent inhibition | nonselective | 
c1ccc(-c2cc(-c3ccccc3)c(N3CCNCC3)nn2)cc1 [MW01-7-133WH, 4,6-diphenyl-3-piperazinylpyridazine] | does not suppress | not inhibited | does not suppress | Concentration dependent inhibition | selective | 
